Source: patent publication US20250144054A1, “SMALL MOLECULE STAT3 INHIBITOR FOR TREATING TRIPLE NEGATIVE BREAST CANCER” (UNIVERSITY OF MARYLAND, BALTIMORE, priority 2022, published 2025)

Experiments:
medulloblastoma cells = settings: refs [25,31]; cited from earlier work
MDA-MB-231 cells = assay: Wound healing assay, MDA-MB-231 cells; assay type: cell-based, human; settings: MDA-MB-231, vs DMSO
Description: Wound healing assay. MDA-MB-231, SUM159, and 4T1 cells were seeded in a 6-well plate and cultured until fully confluent. A straight scratch crossing the monolayer was created using a 200 μl pipette tip and images of scratched areas were taken. Next, cells were treated with DMSO or LLL12B. Then, images were taken until the scratch of DMSO-treated cells was closed and the relative migration (%) was calculated.
Given the relevance between cancer cell migration and metastasis, cell migration was evaluated using wound healing assay following LLL12B and Talazoparib treatment.
In FIG. 12, L: LLL12B; T: Talazoparib; L0.5:0.5 μM LLL12B; L0.25:0.25 μM LLL12B; T0.5:0.5 μM Talazoparib; T10: 10 μM Talazoparib. In FIG. 13, L: LLL12B; T: Talazoparib; L0.5:0.5μ M LLL12B; T10: 10μ M Talazoparib; T20: 20μ M Talazoparib. In FIG. 14, L: LLL12B; T: Talazoparib; L0.5:0.5μ M LLL12B; T10: 10μ M Talazoparib; T20: 20μ M Talazoparib.
L: LLL12B; A: Abemaciclib; L0.5:0.5 μM LLL12B; A2.5:2.5 μM Abemaciclib; A1: 1 μM Abemaciclib

STAT3 = assay: Western blot of P-STAT3 (Y705), STAT3, Cyclin D1, Cleaved Caspase-3 in SUM159 cells; assay type: cell-based, human; settings: SUM159, overnight, vs DMSO
Description: (A) MDA-MB-231, SUM159, and 4T1 cell lines were treated with DMSO or LLL12B overnight and the expression levels of P-STAT3 (Y705), STAT3, Cyclin D1, and Cleaved Caspase-3 were analyzed by Western blot. GAPDH served as a protein loading control. (B) MDA-MB-231 cells were treated with DMSO or C188-9 overnight and the expression levels of P-STAT3 (Y705), STAT3, Cyclin D1, and Cleaved Caspase-3 were analyzed by Western blot. (C) MDA-MB-231, SUM159, and 4T1 cells were seeded in a 96-well plate and treated with DMSO or LLL12B for 5 hours and a Caspase-3/7 Fluorescence Assay Kit was used to detect the activation of caspase-3/7. (D) MDA-MB-231, SUM159, and 4T1 cell lines were treated with DMSO or LLL12B for 8-12 hours, and flow cytometry was performed to analyze annexin V and PI staining. The quantification of apoptotic cells was shown in the right panel. ** P<0.01, *** P<0.001 and ****P<0.0001.
SiRNA and transfection. STAT3 siRNA and Negative Control siRNA (Cell Signaling Technology, Danvers, MA, USA) were used to knock down STAT3 in MDA-MB-231, SUM159, and 4T1 cell lines. Cells were transfected with STAT3 siRNA or Negative Control siRNA using Lipofectamine RNAiMAX (Invitrogen, Carlsbad, CA, USA) according to the manufacturer's instructions. After 72 hours, cell viability was examined by MTT cell viability assay, and the transfection efficiency was examined by western blot.
Western blot. Cells were collected and total protein was extracted using cell lysis buffer (Cell Signaling Technology, Danvers, MA, USA). Protein concentration was determined using the Pierce BCA Protein Assay Kit (Thermo Fisher Scientific, Waltham, MA, USA) according to the manufacturer's instructions. Equal amounts of protein were separated by 10% SDS-PAGE gels and transferred to PVDF membranes. Membranes were blocked in 5% non-fat milk at room temperature and probed with specific antibodies P-STAT3 (Y705), STAT3, Cyclin D1, Cleaved Caspase-3, P-STAT1 (Y701), STAT1, P-ERK, ERK or GAPDH (1:1000, Cell Signaling Technology, Danvers, MA, USA) at 4° C. overnight. […]

[1] = system: MDA-MB-231 orthotopic tumor; assay: Orthotopic mammary fat pad tumor model in vivo; parameters: species or system athymic nude mice
Description: Orthotopic mammary fat pad tumor model in vivo. All mice were used under guidelines approved by the IACUC of University of Maryland School of Medicine. 6-week-old female athymic nude mice were purchased from The Jackson Laboratory (Bar Harbor, ME, USA). 2.5×10^6 MDA-MB-231 cells in 50 μl matrigel (BD Science, Franklin Lakes, NJ, USA) were inoculated into the 4th mammary fat pads bilaterally. After the tumor volume reached approximately 50 mm^3, mice were randomly divided into two groups (3 mice with 6 tumors in each group). LLL12B (2.5 mg/kg) or DMSO vehicle was administered daily by oral gavage for 28 days. Tumor size was measured by the length (L) and width (W) using a caliper ruler every 2 days. Tumor volume was calculated using 0.52×L×W^2. Body weight was monitored every 2 days. At the end of the experiment, tumors were removed and weighed. Part of the tumor tissue was lysed to detect the expression of P-STAT3 (Y705), STAT3, and Cyclin DI using Western blot analysis.
Female nude mice were implanted with MDA-MB-231 cells to establish an orthotopic tumor model to further evaluate LLL12B efficacy in vivo. MDA-MB-231 cells were inoculated into the 4th mammary fat pads and tumors were allowed to develop until the volume reached approximately 50 mm^3. Vehicle control or LLL12B (2.5 mg/kg) was administered once daily by oral gavage for 28 days.

4T1 cells = assay: Colony formation assay, 4T1 cells; assay type: cell-based, murine; settings: 4T1, 24 hours treatment, 7 days drug-free, vs DMSO
Description: Colony formation assay. MDA-MB-231, SUM159, and 4T1 cells were seeded in a 6-well plate at a density of 1000 cells/well and treated with DMSO or LLL12B for 24 hours, and then cultured in a drug-free culture medium for 7 days. Colonies were fixed with methanol for 30 min and stained with 1% crystal violet in 25% methanol for 2 hours at room temperature.

ovarian cancer cells = settings: ref [45]; cited from earlier work
[2] = 2.5 mg/kg once daily oral gavage 28 days, vs vehicle
[3] = Western blot, 2.5 mg/kg oral 28 days

CN(C)C(=O)Oc1cccc2c1C(=O)c1cccc(S(N)(=O)=O)c1C2=O [LLL12B]
apoptosis (medulloblastoma cells): induced apoptosis
tumor growth (medulloblastoma cells): suppressed tumor growth
wound closure (cell migration) (MDA-MB-231 cells): effectively inhibited
Cyclin D1 expression (STAT3): decreased
expression of Cleaved Caspase-3 (STAT3): enhanced
phosphorylation of STAT3 (STAT3): decreased
body weights [1, 2]: no obvious reduction
tumor volume [1, 2]: significantly reduced
tumor weight [1, 2]: reduced
Cyclin D1 expression in tumor tissues [1, 3]: suppressed
phosphorylation of STAT3 (Y705) in tumor tissues [1, 3]: suppressed
colony numbers (4T1 cells): significant reduction
sensitization to paclitaxel and cisplatin (ovarian cancer cells): sensitized
